Assay results from patent US9096624B2 (OSI Pharmaceuticals, LLC, priority 2009, dated 2015).

Experiments:
[1] = target: T1, FAK (Homo sapiens, UniProt Q05397); assay: Cell-based capture ELISA for inhibition of FAK autophosphorylation [pY397] in MiaPaCa2 cells
Experimental: Cell-Based Assays for Inhibition of FAK Autophosphorylation: MiaPaCa2 and U87MG
ELISA kit from Invitrogen (KHO0441).
Reagents Provided in Biosource FAK [pY397]
The cells were then suspended in cell assay medium.

[2] = target: T1, FAK; assay: biochemical
[3] = MIA-PaCa2 cells on fibronectin, 2 h, no plasma, read-out: Mean FAK Cell Mechanistic IC50 MIA-PaCa2
[4] = MIA-PaCa2 cells, + 50% human plasma, read-out: Mean FAK Cell Mechanistic IC50 + 50% hP MIA-PaCa2
[5] = MIA-PaCa2 cells, + 50% mouse plasma (Table 2), read-out: Mean FAK Cell Mechanistic IC50 + 50% mP MIA-PaCa2
[6] = MIA-PaCa2 cells, + 50% mouse plasma (Table 3), read-out: Mean FAK Cell Mechanistic IC50 + 50% mP MIA-PaCa2

T1 sequence (Q05397 whole entry): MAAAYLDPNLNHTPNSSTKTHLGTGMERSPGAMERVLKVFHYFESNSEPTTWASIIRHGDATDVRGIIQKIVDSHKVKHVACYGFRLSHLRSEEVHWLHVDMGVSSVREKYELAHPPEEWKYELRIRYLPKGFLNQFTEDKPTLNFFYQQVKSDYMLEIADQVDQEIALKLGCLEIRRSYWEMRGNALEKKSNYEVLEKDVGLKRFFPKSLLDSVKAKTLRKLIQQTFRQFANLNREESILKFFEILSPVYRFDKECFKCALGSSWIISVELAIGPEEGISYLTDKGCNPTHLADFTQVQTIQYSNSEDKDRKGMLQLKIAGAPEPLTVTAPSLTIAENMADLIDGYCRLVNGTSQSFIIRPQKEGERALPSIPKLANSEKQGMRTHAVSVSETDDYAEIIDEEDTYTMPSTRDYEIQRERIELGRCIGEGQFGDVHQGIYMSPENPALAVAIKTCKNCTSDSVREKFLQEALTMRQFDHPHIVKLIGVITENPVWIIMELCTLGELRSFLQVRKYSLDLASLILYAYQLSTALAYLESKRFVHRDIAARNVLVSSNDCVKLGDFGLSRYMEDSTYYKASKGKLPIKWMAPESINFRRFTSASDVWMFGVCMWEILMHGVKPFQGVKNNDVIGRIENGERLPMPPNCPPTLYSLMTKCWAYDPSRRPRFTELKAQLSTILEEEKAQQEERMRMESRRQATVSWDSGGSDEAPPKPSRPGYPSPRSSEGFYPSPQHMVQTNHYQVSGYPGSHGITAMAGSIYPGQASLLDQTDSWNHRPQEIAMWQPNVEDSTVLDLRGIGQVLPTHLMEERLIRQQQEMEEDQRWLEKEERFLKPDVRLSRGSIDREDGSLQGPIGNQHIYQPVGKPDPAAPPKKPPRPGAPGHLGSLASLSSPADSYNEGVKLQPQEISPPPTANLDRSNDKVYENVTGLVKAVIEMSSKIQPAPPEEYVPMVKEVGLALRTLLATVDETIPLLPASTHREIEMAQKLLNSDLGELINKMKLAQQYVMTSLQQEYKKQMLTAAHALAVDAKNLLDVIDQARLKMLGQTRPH

IC50 [1, 5]	SMILES	IC50 [1, 3]	IC50 [1, 4]	IC50 [2]	IC50 [1, 6]
< 1000 nM	CC(C)P(=O)(Cc1cccc(Nc2ncc(C(F)(F)F)c(NCc3cccnc3N(C)S(C)(=O)=O)n2)c1)C(C)C [Example 9, N-[3-({[2-({3-[(Dipropan-2-ylphosphoryl)methyl]phenyl}amino)-5-(trifluoromethyl)pyrimidin-4-yl]amino}methyl)pyridin-2-yl]-N-methylmethanesulfonamide]	< 1000 nM	< 1000 nM	< 1000 nM	–
–	CCOP(=O)(Cc1ccc(Nc2ncc(Br)c(Nc3ccccc3C(=O)NC)n2)cc1)OCC [Example 49, Diethyl {4-[(5-bromo-4-{[2-(methylcarbamoyl)phenyl]amino}pyrimidin-2-yl)amino]benzyl}phosphonate]	< 1000 nM	< 1000 nM	< 1000 nM	–
–	CCOP(=O)(Cc1ccc(Nc2ncc(C(F)(F)F)c(Nc3cccc4c3C(=O)N(C)C4(C)C)n2)c(OC)c1)OCC [Example 148, Diethyl [3-methoxy-4-({5-(trifluoromethyl)-4-[(1,1,2-trimethyl-3-oxo-2,3-dihydro-1H-isoindol-4-yl)amino]pyrimidin-2-yl}amino)benzyl]phosphonate]	–	–	< 1000 nM	1000 to 10000 nM
–	CCOP(=O)(Cc1ccc(Nc2ncc(C(F)(F)F)c(Nc3ccc([C@H]4CC[C@H](O)CC4)nc3C(=O)NC)n2)c(OC)c1)OCC [Example 232, Diethyl (4-{[4-{[6-(trans-4-hydroxycyclohexyl)-2-(methylcarbamoyl)pyridin-3-yl]amino}-5-(trifluoromethyl)pyrimidin-2-yl]amino}-3-methoxybenzyl)phosphonate]	–	–	< 1000 nM	< 1000 nM
–	CCOP(=O)(Cc1ccc(Nc2ncc(C(F)(F)F)c(Nc3ccc(-c4cnn(C[C@H](O)CO)c4)c4c3C(=O)N(C)C4)n2)c(OC)c1)OCC [Example 70, Diethyl [4-({4-[(7-{1-[(2S)-2,3-dihydroxypropyl]-1H-pyrazol-4-yl}-2-methyl-3-oxo-2,3-dihydro-1H-isoindol-4-yl)amino]-5-(trifluoromethyl)pyrimidin-2-yl}amino)-3-methoxybenzyl]phosphonate]	< 1000 nM	< 1000 nM	< 1000 nM	–
–	CCOP(C)(=O)Cc1ccc(Nc2ncc(C(F)(F)F)c(Nc3ccc(-c4cnn(CCO)c4)c4c3C(=O)N(C)C4)n2)cc1 (stereo not shown) [Example 64, Ethyl (4-{[4-({7-[1-(2-hydroxyethyl)-1H-pyrazol-4-yl]-2-methyl-3-oxo-2,3-dihydro-1H-isoindol-4-yl}amino)-5-(trifluoromethyl)pyrimidin-2-yl]amino}benzyl)methylphosphinate]	< 1000 nM	< 1000 nM	< 1000 nM	–
< 1000 nM	CNC(=O)c1ccccc1Nc1nc(Nc2cccc(CP(C)(C)=O)c2)ncc1C(F)(F)F [Example 17, 2-{2-[3-(Dimethylphosphinoylmethyl)phenylamino]-5-trifluoromethylpyrimidin-4-ylamino}-N-methylbenzamide]	< 1000 nM	< 1000 nM	< 1000 nM	–
–	CCOP(=O)(Cc1ccc(Nc2ncc(C(F)(F)F)c(Nc3ccc(N4CCN(C)CC4)c4c3C(=O)N(C)C4)n2)cc1)OCC [Example 201, Diethyl (4-{[4-{[2-methyl-7-(4-methylpiperazin-1-yl)-3-oxo-2,3-dihydro-1H-isoindol-4-yl]amino}-5-(trifluoromethyl)pyrimidin-2-yl]amino}benzyl)phosphonate]	–	–	< 1000 nM	< 1000 nM

SMILES	IC50 [1, 5]	IC50 [1, 3]	IC50 [1, 4]	IC50 [2]	IC50 [1, 6]
CCOP(=O)(Cc1ccc(Nc2ncc(C(F)(F)F)c(NCc3cccc(S(C)(=O)=O)c3)n2)cc1)OCC [Example 25, diethyl (4-{[4-{[3-(methylsulfonyl)benzyl]amino}-5-(trifluoromethyl)pyrimidin-2-yl]amino}benzyl)phosphonate]	1000 to 10000 nM	–	–	< 1000 nM	–
